# Experiments:
# [1] = system: blackgrass; test: Test A preemergence; type: in vivo, Alopecurus myosuroides
# In short: (§1)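 Weeds and crops in loam–sand blend were sprayed preemergence onto soil or postemergence at 2–10 cm (one- to two-leaf stage). Test chemicals were in a non-phytotoxic solvent with surfactant. After 10 days in the greenhouse, injury was rated visually against untreated controls on a 0 (no effect) to 100 (complete control) scale.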
# [2] = system: corn; test: Test A preemergence; type: in vivo, Zea mays
# In short: as §1
# [3] = system: foxtail, giant; test: Test A preemergence; type: in vivo, Setaria faberi
# In short: as §1
# [4] = system: goosegrass; test: Test A preemergence; type: in vivo, Eleusine indica
# In short: as §1
# [5] = system: kochia; test: Test A preemergence; type: in vivo, Bassia scoparia
# In short: as §1
# [6] = system: oat, wild; test: Test A preemergence; type: in vivo, Avena fatua
# In short: as §1
# [7] = system: pigweed, palmer; test: Test A preemergence; type: in vivo, Amaranthus palmeri
# In short: as §1
# [8] = system: ragweed; test: Test A preemergence; type: in vivo, Ambrosia artemisiifolia
# In short: as §1
# [9] = system: ryegrass, Italian; test: Test A preemergence; type: in vivo, Lolium multiflorum
# In short: as §1
# [10] = system: soybean; test: Test A preemergence; type: in vivo, Glycine max
# In short: as §1
# [11] = system: wheat; test: Test A preemergence; type: in vivo, Triticum aestivum
# In short: as §1
# [12] = system: blackgrass; test: Test A postemergence; type: in vivo, Alopecurus myosuroides; details: postemergence, 10 days; for Blackgrass plant response rating: 125 g ai/ha, 0 to 100 scale, 0 no effect, 100 complete control; for Plant response rating, Blackgrass: 500 g ai/ha, visual injury, 0 to 100 scale (0 no effect, 100 complete control)
# In short: as §1
# [13] = system: corn; test: Test A postemergence; type: in vivo, Zea mays; details: postemergence, 10 days; for Corn plant response rating: 125 g ai/ha, 0 to 100 scale, 0 no effect, 100 complete control; for Plant response rating, Corn: 500 g ai/ha, visual injury, 0 to 100 scale (0 no effect, 100 complete control)
# In short: as §1
# [14] = system: foxtail, giant; test: Test A postemergence; type: in vivo, Setaria faberi; details: postemergence, 10 days; for Foxtail, Giant plant response rating: 125 g ai/ha, 0 to 100 scale, 0 no effect, 100 complete control; for Plant response rating, Foxtail, Giant: 500 g ai/ha, visual injury, 0 to 100 scale (0 no effect, 100 complete control)
# In short: as §1
# [15] = system: goosegrass; test: Test A postemergence; type: in vivo, Eleusine indica; details: postemergence, 10 days; for Goosegrass plant response rating: 125 g ai/ha, 0 to 100 scale, 0 no effect, 100 complete control; for Plant response rating, Goosegrass: 500 g ai/ha, visual injury, 0 to 100 scale (0 no effect, 100 complete control)
# In short: as §1
# [16] = system: kochia; test: Test A postemergence; type: in vivo, Bassia scoparia; details: postemergence, 10 days; for Kochia plant response rating: 125 g ai/ha, 0 to 100 scale, 0 no effect, 100 complete control; for Plant response rating, Kochia: 500 g ai/ha, visual injury, 0 to 100 scale (0 no effect, 100 complete control)
# In short: as §1
# [17] = system: oat, wild; test: Test A postemergence; type: in vivo, Avena fatua; details: postemergence, 10 days; for Oat, Wild plant response rating: 125 g ai/ha, 0 to 100 scale, 0 no effect, 100 complete control; for Plant response rating, Oat, Wild: 500 g ai/ha, visual injury, 0 to 100 scale (0 no effect, 100 complete control)
# In short: as §1
# [18] = system: pigweed, palmer; test: Test A postemergence; type: in vivo, Amaranthus palmeri; details: postemergence, 10 days; for Pigweed, Palmer plant response rating: 125 g ai/ha, 0 to 100 scale, 0 no effect, 100 complete control; for Plant response rating, Pigweed, Palmer: 500 g ai/ha, visual injury, 0 to 100 scale (0 no effect, 100 complete control)
# In short: as §1
# [19] = system: ragweed; test: Test A postemergence; type: in vivo, Ambrosia artemisiifolia; details: postemergence, 10 days; for Ragweed plant response rating: 125 g ai/ha, 0 to 100 scale, 0 no effect, 100 complete control; for Plant response rating, Ragweed: 500 g ai/ha, visual injury, 0 to 100 scale (0 no effect, 100 complete control)
# In short: as §1
# [20] = system: ryegrass, Italian; test: Test A postemergence; type: in vivo, Lolium multiflorum; details: postemergence, 10 days; for Ryegrass, Italian plant response rating: 125 g ai/ha, 0 to 100 scale, 0 no effect, 100 complete control; for Plant response rating, Ryegrass, Italian: 500 g ai/ha, visual injury, 0 to 100 scale (0 no effect, 100 complete control)
# In short: as §1
# [21] = system: soybean; test: Test A postemergence; type: in vivo, Glycine max; details: postemergence, 10 days; for Soybean plant response rating: 125 g ai/ha, 0 to 100 scale, 0 no effect, 100 complete control; for Plant response rating, Soybean: 500 g ai/ha, visual injury, 0 to 100 scale (0 no effect, 100 complete control)
# In short: as §1
# [22] = system: wheat; test: Test A postemergence; type: in vivo, Triticum aestivum; details: postemergence, 10 days; for Wheat plant response rating: 125 g ai/ha, 0 to 100 scale, 0 no effect, 100 complete control; for Plant response rating, Wheat: 500 g ai/ha, visual injury, 0 to 100 scale (0 no effect, 100 complete control)
# In short: as §1
# [23] = system: galium; test: Test A postemergence; type: in vivo, Galium aparine; details: postemergence, 10 days; for Galium plant response rating: 125 g ai/ha, 0 to 100 scale, 0 no effect, 100 complete control; for Plant response rating, Galium: 500 g ai/ha, visual injury, 0 to 100 scale (0 no effect, 100 complete control)
# In short: as §1
# [24] = system: horseweed; test: Test A postemergence; type: in vivo, Erigeron canadensis; details: postemergence, 10 days; for Horseweed plant response rating: 125 g ai/ha, 0 to 100 scale, 0 no effect, 100 complete control; for Plant response rating, Horseweed: 500 g ai/ha, visual injury, 0 to 100 scale (0 no effect, 100 complete control)
# In short: as §1
# [25] = system: barnyardgrass; test: Test B flooded paddy test; type: in vivo, Echinochloa crus-galli; details: 250 g ai/ha, Flood, 13 days, 0 to 100 scale (0 no effect, 100 complete control)
# In short: (§2)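 Each species was raised to the 2-leaf stage. At treatment, each pot received floodwater 3 cm deep, with the chemical delivered into the water. Greenhouse holding followed for 13 days, then percent control was estimated visually versus untreated pots.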
# [26] = system: ducksalad; test: Test B flooded paddy test; type: in vivo, Heteranthera limosa; details: 250 g ai/ha, Flood, 13 days, 0 to 100 scale (0 no effect, 100 complete control)
# In short: as §2
# [27] = system: rice; test: Test B flooded paddy test; type: in vivo, Oryza sativa; details: 250 g ai/ha, Flood, 13 days, 0 to 100 scale (0 no effect, 100 complete control)
# In short: as §2
# [28] = system: sedge, umbrella; test: Test B flooded paddy test; type: in vivo, Cyperus difformis; details: 250 g ai/ha, Flood, 13 days, 0 to 100 scale (0 no effect, 100 complete control)
# In short: as §2
# [29] = 125 g ai/ha, visual injury after 10 days, 0 to 100 scale, 0 is no effect, 100 is complete control
# [30] = 500 g ai/ha, 0 to 100 scale (0 no effect, 100 complete control), 10 days
compound,measurement,setting,value
CCc1ncn(-c2ccc(CC)c(C(=O)N3C[C@H](C)Oc4c(Cl)cccc43)c2)n1 [Compound 95],"Plant response rating, Blackgrass",[1]; [29],70
same,"Plant response rating, Blackgrass",[1]; [30],80
same,"Plant response rating, Corn",[2]; [29],60
same,"Plant response rating, Corn",[2]; [30],100
same,"Plant response rating, Foxtail, Giant",[3]; [29],100
same,"Plant response rating, Foxtail, Giant",[3]; [30],100
same,"Plant response rating, Goosegrass",[4]; [29],100
same,"Plant response rating, Goosegrass",[4]; [30],100
same,"Plant response rating, Kochia",[5]; [29],60
same,"Plant response rating, Kochia",[5]; [30],100
same,"Plant response rating, Oat, Wild",[6]; [29],80
same,"Plant response rating, Oat, Wild",[6]; [30],90
same,"Plant response rating, Pigweed, Palmer",[7]; [29],90
same,"Plant response rating, Pigweed, Palmer",[7]; [30],100
same,"Plant response rating, Ragweed",[8]; [29],0
same,"Plant response rating, Ragweed",[8]; [30],70
same,"Plant response rating, Ryegrass, Italian",[9]; [29],100
same,"Plant response rating, Ryegrass, Italian",[9]; [30],100
same,"Plant response rating, Soybean",[10]; [29],50
same,"Plant response rating, Soybean",[10]; [30],100
same,"Plant response rating, Wheat",[11]; [29],90
same,"Plant response rating, Wheat",[11]; [30],90
same,Blackgrass plant response rating,[12],80
same,"Plant response rating, Blackgrass",[12],90
same,Corn plant response rating,[13],60
same,"Plant response rating, Corn",[13],90
same,"Foxtail, Giant plant response rating",[14],90
same,"Plant response rating, Foxtail, Giant",[14],90
same,Goosegrass plant response rating,[15],80
same,"Plant response rating, Goosegrass",[15],90
same,Kochia plant response rating,[16],80
same,"Plant response rating, Kochia",[16],90
same,"Oat, Wild plant response rating",[17],70
same,"Plant response rating, Oat, Wild",[17],80
same,"Pigweed, Palmer plant response rating",[18],50
same,"Plant response rating, Pigweed, Palmer",[18],90
same,Ragweed plant response rating,[19],0
same,"Plant response rating, Ragweed",[19],50
same,"Ryegrass, Italian plant response rating",[20],60
same,"Plant response rating, Ryegrass, Italian",[20],100
same,Soybean plant response rating,[21],100
same,"Plant response rating, Soybean",[21],100
same,Wheat plant response rating,[22],40
same,"Plant response rating, Wheat",[22],80
same,Galium plant response rating,[23],100
same,"Plant response rating, Galium",[23],100
same,Horseweed plant response rating,[24],0
same,"Plant response rating, Horseweed",[24],30
same,"Plant response rating, Barnyardgrass",[25],65
same,"Plant response rating, Ducksalad",[26],95
same,"Plant response rating, Rice",[27],0
same,"Plant response rating, Sedge, Umbrella",[28],98
C[C@H]1CN(C(=O)c2cccc(-n3cnc(C(C)(C)C)n3)c2)c2cccc(Cl)c2O1 [Compound 92],"Plant response rating, Blackgrass",[1]; [29],80
same,"Plant response rating, Blackgrass",[1]; [30],90
same,"Plant response rating, Corn",[2]; [29],30
same,"Plant response rating, Corn",[2]; [30],30
same,"Plant response rating, Foxtail, Giant",[3]; [29],70
same,"Plant response rating, Foxtail, Giant",[3]; [30],100
same,"Plant response rating, Goosegrass",[4]; [29],100
same,"Plant response rating, Goosegrass",[4]; [30],100
same,"Plant response rating, Kochia",[5]; [29],70
same,"Plant response rating, Kochia",[5]; [30],100
same,"Plant response rating, Oat, Wild",[6]; [29],80
same,"Plant response rating, Oat, Wild",[6]; [30],90
same,"Plant response rating, Pigweed, Palmer",[7]; [29],100
same,"Plant response rating, Pigweed, Palmer",[7]; [30],100
same,"Plant response rating, Ragweed",[8]; [29],0
same,"Plant response rating, Ragweed",[8]; [30],30
same,"Plant response rating, Ryegrass, Italian",[9]; [29],100
same,"Plant response rating, Ryegrass, Italian",[9]; [30],100
same,"Plant response rating, Soybean",[10]; [29],50
same,"Plant response rating, Soybean",[10]; [30],90
same,"Plant response rating, Wheat",[11]; [29],30
same,"Plant response rating, Wheat",[11]; [30],80
same,Blackgrass plant response rating,[12],70
same,"Plant response rating, Blackgrass",[12],90
same,Corn plant response rating,[13],30
same,"Plant response rating, Corn",[13],70
same,"Foxtail, Giant plant response rating",[14],30
same,"Plant response rating, Foxtail, Giant",[14],80
same,Goosegrass plant response rating,[15],30
same,"Plant response rating, Goosegrass",[15],50
same,Kochia plant response rating,[16],80
same,"Plant response rating, Kochia",[16],90
same,"Oat, Wild plant response rating",[17],50
same,"Plant response rating, Oat, Wild",[17],70
same,"Pigweed, Palmer plant response rating",[18],90
same,"Plant response rating, Pigweed, Palmer",[18],90
same,Ragweed plant response rating,[19],60
same,"Plant response rating, Ragweed",[19],70
same,"Ryegrass, Italian plant response rating",[20],50
same,"Plant response rating, Ryegrass, Italian",[20],100
same,Soybean plant response rating,[21],90
same,"Plant response rating, Soybean",[21],100
same,Wheat plant response rating,[22],40
same,"Plant response rating, Wheat",[22],50
same,Galium plant response rating,[23],100
same,"Plant response rating, Galium",[23],100
same,Horseweed plant response rating,[24],0
same,"Plant response rating, Horseweed",[24],50
same,"Plant response rating, Barnyardgrass",[25],25
same,"Plant response rating, Ducksalad",[26],90
same,"Plant response rating, Rice",[27],0
same,"Plant response rating, Sedge, Umbrella",[28],0

# Source: patent US20260262643A1, “HERBICIDAL BENZOXAZINES” (FMC CORPORATION, priority 2022, published 2026)
